Assays:
SARS-CoV-2 [1] = assay: Antiviral activity against SARS-CoV-2 Wuhan infected in human Caco-2 cells harboring ACE2-Cl33 at 0.1 MOI assessed as inhibition of viral replication pretreated with compounds for 2 hrs followed by infection for 1 hr and measured after 72 hrs post-infection by qRT-PCR analysis; format: functional, organism-based; details: Severe acute respiratory syndrome coronavirus 2, Wuhan
[2] = Selectivity index, ratio of CC50 for cytotoxicity against human A549 cells harboring ACE2-CI33 assessed as cell viability by celltiter glo assay to EC50 for antiviral activity against SARS-CoV-2 Wuhan infected in human A549 cells harboring ACE2-Cl33; format: toxicity, cell-based; details: read-out: Ratio CC50/EC50
SARS-CoV-2 [3] = assay: Antiviral activity against SARS-CoV-2 Wuhan infected in human A549 cells harboring ACE2-Cl33 at 0.1 MOI assessed as inhibition of viral replication pretreated with compounds for 2 hrs followed by infection for 1 hr and measured after 72 hrs post-infection by qRT-PCR analysis; format: functional, organism-based; details: Severe acute respiratory syndrome coronavirus 2, Wuhan
[4] = Selectivity index, ratio of CC50 for cytotoxicity against human Caco-2 cells harboring ACE2-CI33 assessed as cell viability by celltiter glo assay to EC50 for antiviral activity against SARS-CoV-2 Wuhan infected in human A549 cells harboring ACE2-Cl33; format: toxicity, cell-based; details: read-out: Ratio CC50/EC50
SARS-CoV-2 [5] = assay: Antiviral activity against SARS-CoV-2 Delta B1.617.2 infected in human A549 cells harboring ACE2-Cl33 at 0.1 MOI assessed as inhibition of viral replication pretreated with compounds for 2 hrs followed by infection for 1 hr and measured after 72 hrs post-infection by qRT-PCR analysis; format: functional, organism-based; details: Severe acute respiratory syndrome coronavirus 2, Delta B1.617.2, A549

Structure (SMILES) | selectivity ratio [2] | EC50 (SARS-CoV-2 [3]) [nM] | further results
CN(C)CCCNCc1ccc(-c2nc(-c3ccc(CNCCCN(C)C)cc3)c3ccn(-c4ccc(CNCCCN(C)C)cc4)c3n2)cc1 | > 14.6 | 436 | EC50 (SARS-CoV-2 [1]): 1540 nM; selectivity ratio [4]: ≥ 4.57
CN(C)CCCCNCc1ccc(-c2cc(-c3ccc(CNCCCCN(C)C)cc3)c3ccn(-c4ccccc4)c3n2)cc1 | 7.38 | – | –
CN(C)CCCNCc1ccc(-c2cn(-c3ccc(CNCCCN(C)C)cc3)c3ncnc(-c4ccc(CNCCCN(C)C)cc4)c23)cc1 | > 1.43 | – | –
CN(C)CCCCNCc1ccc(-c2nc(-c3ccc(CNCCCCN(C)C)cc3)c3ncn(-c4ccccc4)c3n2)cc1 | ≥ 2.68 | – | –
CN(C)CCCCCNCc1ccc(-c2cc3c(ccn3-c3ccccc3)c(-c3ccc(CNCCCCCN(C)C)cc3)n2)cc1 | 8.18 | – | –
CN(C)CCCCNCc1ccc(-c2nc(-c3ccc(CNCCCCN(C)C)cc3)c3ccn(-c4ccc(CNCCCCN(C)C)cc4)c3n2)cc1 | 6.67 | – | –
CN(C)CCCCNCc1ccc(-c2cc(-c3ccc(CNCCCCN(C)C)cc3)c3ccn(-c4ccccc4)c3c2)cc1 | 1.88 | 528 | EC50 (SARS-CoV-2 [1]): 787 nM; EC50 (SARS-CoV-2 [5]): 681 nM; selectivity ratio [4]: 0.93
CN(C)CCCCNCc1ccc(-c2cn(-c3ccccc3)c3ncnc(-c4ccc(CNCCCCN(C)C)cc4)c23)cc1 | > 9.3 | – | –
CN1CCN(CCCCNCc2ccc(-c3cc(-c4ccc(CNCCCCN5CCN(C)CC5)cc4)c4ccn(-c5ccccc5)c4c3)cc2)CC1 | 2.74 | – | –
CN(C)CCCCNCc1ccc(-c2nc(-c3ccccc3)c3ccn(-c4ccc(CNCCCCN(C)C)cc4)c3n2)cc1 | 2.64 | 920 | –
O=c1c(O)cc([C@H]2Oc3cc(O)cc(O)c3C[C@H]2O)cc2c([C@H]3Oc4cc(O)cc(O)c4C[C@H]3O)cc(O)c(O)c12 [THEAFLAVIN] | > 83.3 | – | –
CN(C)CCCCNCc1ccc(-c2nc(-c3ccc(CNCCCCN(C)C)cc3)c3c(ccn3-c3ccccc3)n2)cc1 | > 15.1 | – | –
CN(C)CCCCNCc1ccc(-c2ccc3ccc4ccc(-c5ccc(CNCCCCN(C)C)cc5)nc4c3n2)cc1 | > 1.09 | 9170 | –
CN1CCN(CCCCNCc2ccc(-c3ccc4ccc5ccc(-c6ccc(CNCCCCN7CCN(C)CC7)cc6)nc5c4n3)cc2)CC1 | – | > 10000 | –
CCN(CC)CCCCNCc1ccc(-c2cc3c(ccn3-c3ccccc3)c(-c3ccc(CNCCCCN(CC)CC)cc3)n2)cc1 | > 13.9 | – | –
CN(C)CCCCCNCc1ccc(-c2cc(-c3ccc(CNCCCCCN(C)C)cc3)c3ccn(-c4ccccc4)c3c2)cc1 | 2.35 | 1320 | EC50 (SARS-CoV-2 [1]): 946 nM; EC50 (SARS-CoV-2 [5]): 1280 nM; selectivity ratio [4]: 1.88
CN(C)CCCCNCc1ccc(-c2cc3c(ccn3-c3ccccc3)c(-c3ccc(CNCCCCN(C)C)cc3)n2)cc1 | 2.18 | – | –
CCC(CC)COC(=O)[C@H](C)N[P@](=O)(OC[C@H]1O[C@@](C#N)(c2ccc3c(N)ncnn23)[C@H](O)[C@@H]1O)Oc1ccccc1 [REMDESIVIR] | > 1.18 | – | –

Source: ChEMBL document CHEMBL6177988, “Design, synthesis, biophysical and biological evaluation of original condensed pyrrolopyrimidine and pyrrolopyridine ligands as anti-SARS-CoV-2 agents targeting G4” (Eur J Med Chem, 2025)
